# Patent US9139551B2, “Preparation of a new class of water-soluble ammonium 2,3-dihydroxy-5-((2R,3R)-3,5,7-trihydroxy-4-oxochroman-2-yl) phenolates and their biological activity of alcohol elimination” (priority 2014, dated 2015)
# Key:
# [1] = test system: Balb/C mice; assay: Plasma EtOH concentration assay; assay type: in vivo; details: intragastric 2 mg/kg
# Experimental: Plasma EtOH Concentration Assay. • Blood samples from the tail vein of mice at different time points (0, 15, 30, 45, 60, 90, 120, 240, 480 and 720 minutes) after EtOH (30% ethanol, 0.2 ml/kg bw) or TDHM (2 mg/kg bw), PDHM (2 mg/kg bw) or DHM (2 mg/kg bw) gavage were collected for plasma EtOH concentrations (plasma [EtOH]) assays. (“BW” or “bw”: body weight) • Briefly, the Balb/C mice were put into a restraint tube and the tail was warmed at 37° C. The tail vein at the tip of the tail was punched with a sharp blade. Approximately 0.2 ml venous blood was dropped to a capillary blood collection tube containing lithium heparin (Ram Scientific). Blood samples were centrifuged at 2500 rpm for 20 min. The supernatant was collected and stored at −80° C. until assay. The EtOH content of each blood sample was measured in duplicate along with EtOH standards using the alcohol oxidase reaction procedures (EnzyChrom™ Ethanol Acid Assay Kit, ECET-100) (Liang et al., 2007). The sample preparations were the same as described above.
# [2] = Solubility in water
# [3] = test system: Balb/C mice; assay: Climbing net test; assay type: in vivo; details: 2 mg/kg gavage 30 min before alcohol
# Experimental: Climbing Net Test • Groups design and treatment before experiment are as the same as that in deintoxication test. […] 30 minutes later all mice administrated alcohol (liquid Erguotou, ethonol concentration was diluted to 30%) 0.2 mL/kg BW and placed on a vertical metal net and measured the time when mice climbed on net.
# [4] = test system: Balb/C mice; assay: Deintoxication test (agent 30 min before alcohol); details: 2 mg/kg gavage 30 min before 30% ethanol
# [5] = test system: Balb/C mice; assay: Anti-alcoholism test (agent 30 min after alcohol); assay type: in vivo; details: 2 mg/kg gavage 30 min after 30% ethanol
# From the text: Anti-Alcoholism Tests • Groups design and treatment before experiment are as the same as that in Deintoxication test. […]
smiles,measurement,setting,value
"O=C1c2c(O)cc(O)cc2O[C@H](c2cc(O)c(O)c(O)c2)[C@H]1O [DHM, dihydromyricetin, reference compound]",blood alcohol concentration vs control group treated with saline,[1],significantly decreased
same,solubility,[2],≤ 264 µg/mL
same,climbing time vs normal control mice,[3],significantly prolonged
same,climbing,[3]; vertical metal net,329.75 ± 76.46 min
same,Sleep time M ± SD,[4],135.71 ± 25.25 min
same,Tolerance time M ± SD,[4],25 ± 7.29 min
same,Dead number,[4]; 20 mice,2 piece
same,Rate of drunk,[4]; 20 mice,10%
same,Sleep time M ± SD,[5],138.17 ± 33.73 min
same,Tolerance time M ± SD,[5],18.29 ± 10.07 min
same,Rate of drunk,[5]; 20 mice,0%
